Earlier results on 2 compounds are cited in patent US11801275B2, “Compositions and methods for common colds” (M. ALPHABET 3, LLC, priority 2017, dated 2023).

Like-named read-outs stand apart in the source and are kept apart here.

Data set [1] relates to upper respiratory tract infections.

For the compound `O=C1O[C@H]([C@@H](O)CO)C(O)=C1O` [vitamin C, ascorbic acid], the “pooled risk ratio (RR) of developing a cold whilst taking vitamin C regularly” value in the data set with common cold (five trials, 598 marathon runners, skiers and soldiers on subarctic exercises, 95% CI 0.35 to 0.64) is given as 0.48; in the data set with common cold (general community trials, 10,708 participants, 95% CI 0.94 to 1.00), 0.97. In addition, the “effect on the duration or severity of colds” value with common cold (therapeutic trials) is given as “no consistent effect”.

With `C=C1CC[C@H](O)C/C1=C/C=C1\CCC[C@]2(C)[C@@H]([C@H](C)CCCC(C)C)CC[C@@H]12` [vitamin D3], the “mean level of 25-hydroxy vitamin D” value in data set [1] (after oral vitamin D3 200,000 IU then 100,000 IU, increased from 29 (SD, 9) ng/mL, maintained throughout the study) is “greater than 48 ng/mL”. For the same compound, in data set [1] (irrespective of season), the “difference versus placebo in upper respiratory tract infections, days of missed work, duration and severity of symptoms” value is “no statistically significant difference”.
